The source of these data is PubChem BioAssay (NCI).

Assay in all cases: NCI tumour cell line growth inhibition, 48 h
Assay [1] concerns 786-0 renal.
The subject of assay [2] is BT-549 breast.
Assay [3] has as its system CCRF-CEM leukemia.
For assay [4], the system named is EKVX NSCLC.
In assay [5] the test system is HCC-2998 colon.
Assay [6] deals with HL-60(TB) leukemia.
The test system of assay [7] is HOP-62 NSCLC.
Assay [8] has as its system HT29 colon.
Assay [9] has as its system KM12 colon.
Assay [10] relates to LOX IMVI melanoma.
Assay [11] has as its system MCF7 breast.
The subject of assay [12] is MDA-MB-435.
Assay [13] relates to NCI-H460 lung.
The subject of assay [14] is RPMI-8226 leukemia.
The test system of assay [15] is SK-MEL-28 melanoma.
Assay [16] relates to SK-MEL-5 melanoma.
The subject of assay [17] is SN12C renal.
Assay [18] relates to SNB-75 CNS.
In assay [19] the test system is SR leukemia.
For assay [20], the system named is UACC-257 melanoma.

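Cultured in 96-well plates, cells were exposed to test compound for 48 hours across five concentrations. Definition used: TGI = concentration required for complete inhibition of growth.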

For `CC(C)NC(=O)OCc1c(COC(=O)NC(C)C)c(-c2ccc[n+](COC(=O)CC(C)(C)C)c2)n2c1CCC2`, the TGI in assay [1], in assay [2], in assay [3], in assay [4], in assay [5] and in assay [6] was more than 100 µM throughout. Also, the TGI in assay [7], in [8], in [9], in [10], in [11] and in assay [12] was more than 100 µM each time. In addition, the TGI in [13], in [14], in assay [15], in [16], in assay [17] and in assay [18] was more than 100 µM each time. The TGI in assay [19] and in assay [20] was more than 100 µM in each case.
For `COc1cc(C2c3cc4c(cc3[C@H](OCCN(C)C)[C@@H]3COC(=O)C23)OCO4)cc(OC)c1O` (stereo not given in full), the TGI amounted to 0.439 µM in assay [1]; 2.32 µM in [2]; 1.73 µM in assay [3]; 1.5 µM in [4]; 2.55 µM in [5]; 0.118 µM in assay [6]. Further, the TGI in assay [7] is 0.366 µM; in assay [8], 3.01 µM; in assay [9], 8.95 µM; in assay [10], 0.803 µM; in [11], more than 100 µM; in assay [12], 16.9 µM. For the same compound, the TGI in [13] was 0.766 µM; in assay [14], more than 100 µM; in assay [15] it was 4.51 µM; in assay [16] it was 1.74 µM; in assay [17] it was 0.598 µM; in [18] it was 3.79 µM. The TGI in [19] was 0.778 µM; in [20], 11.4 µM.
On to `Brc1ccc2c(-c3nc(-c4c[nH]c5ccc(Br)cc45)cs3)c[nH]c2c1`, for which the TGI in [1] was 6.33 µM; in assay [2] it was 27.8 µM; in [3], more than 27.7 µM; in assay [4] it was 6.98 µM; in [5], 5.92 µM; in assay [6], 23.2 µM. Further, the TGI was 29.3 µM in assay [7]; 3.61 µM in [8]; 8.19 µM in assay [9]; 5.22 µM in [10]; 13.9 µM in assay [11]; 18.9 µM in [12]. The TGI in [13] was 8.36 µM; in assay [14], 14 µM; in assay [15] it was 28.7 µM; in [16] it was 12.3 µM; in assay [17], 16.9 µM; in [18] it was 31.4 µM. Moreover, the TGI in assay [19] is 13 µM; in assay [20] it was 23.6 µM.
`CC(=O)c1cccc2c1CC1(C2)Cc2ccc3c(c2C1=O)CCC3` (stereo not given): the TGI in assay [1] is more than 100 µM; in assay [2] it was more than 100 µM; in assay [3], more than 100 µM; in assay [4], 83.3 µM; in assay [5], 67.4 µM; in [6] it was 21.3 µM. Further, the TGI in assay [7] is more than 100 µM; in [8], more than 100 µM; in assay [9], more than 100 µM; in assay [10], more than 100 µM; in [11] it was 76.4 µM; in [12], more than 100 µM. Further, the TGI was more than 100 µM in assay [13]; more than 100 µM in assay [14]; more than 100 µM in assay [15]; 33.7 µM in [16]; more than 100 µM in [17]; more than 100 µM in assay [18]. The results for the TGI in assay [19] and in [20] were 73.1 µM and 43.9 µM, respectively.
With `O=C1NC(Nc2cccc(Cl)c2)=N/C1=C\c1ccc(Cl)c(Cl)c1`, the TGI in assay [1] is 13 µM; in assay [2], 25.1 µM; in assay [3], 35.3 µM; in assay [4], 12.2 µM; in [5], 5.27 µM; in assay [6] it was 15.1 µM. Besides, the TGI is 23.4 µM in [7]; 19.6 µM in [8]; 14.8 µM in [9]; 4.26 µM in assay [10]; 11.1 µM in assay [11]; 17.6 µM in assay [12]. For the same compound, the TGI in assay [13] was found to be 5.67 µM; in [14], 22.7 µM; in assay [15] it was 32.1 µM; in assay [16], 19.1 µM; in [17] it was 5.57 µM; in assay [18], 26.6 µM. In addition, the results for the TGI in [19] and in [20] were 7.37 µM and 22.2 µM, respectively.
Regarding `CCOC(=O)NC(Nc1ccc(S(=O)(=O)Nc2ncccn2)cc1)(C(=O)OCC)C(F)(F)F` (stereo not given), the TGI in [1], in assay [2], in assay [3], in assay [4], in [5] and in assay [6] was more than 100 µM each time. For the same compound, the TGI in assay [7], in [8], in [9], in assay [10], in assay [11] and in assay [12] was more than 100 µM throughout. In addition, the TGI in [13], in assay [14], in assay [15], in [16], in assay [17] and in assay [18] was more than 100 µM throughout. Besides, the TGI in [19] and in assay [20] was more than 100 µM each time.
As for `C=CCN1C(=O)/C(=C/c2ccccc2)NC1=S`, the TGI in assay [1], in assay [2], in assay [3], in [4], in assay [5] and in [6] was more than 100 µM throughout. In addition, the TGI in [7], in assay [8], in assay [9], in [10], in assay [11] and in assay [12] was more than 100 µM throughout. For the same compound, the TGI in [13], in assay [14], in assay [15], in [16], in assay [17] and in [18] was more than 100 µM each time. In addition, the TGI in assay [19] and in assay [20] was more than 100 µM each time.
